For assay [1], the system named is human kidney organoids. The experiment in a line: cisplatin injury of human kidney organoids: immunostaining, organoid size. The format is cell-based. The following applies: intermittent cisplatin, 5 treatments; for proximal tubule cells: confocal microscopy. How it is done: FIG. 7. SK-124 preserves human kidney organoid integrity in cisplatin injury model. Human kidney organoids derived from H9 embryonic stem cells were treated with intermittent cisplatin (5 separate treatments) based on published protocols along with the indicated agent. Organoids were cryo-sectioned and immuno-stained with the indicated markers. The top panels show low power images and the bottom panels focus on regions of proximal tubule cells. The graph measures the mean diameter of organoids in the control (no cisplatin), cisplatin+DMSO, and cisplatin+SK-124 treatment groups.
BJFF human induced pluripotent stem cells (hPSCs) were maintained on Geltrexcoated (Thermo Fisher Scientific) plates using StemFit Basic04 Complete (Ajinomoto Co. Inc.) as previously reported(25). The cells were passaged weekly using Accutase (STEMCELL Technologies) for dissociation and Y27632 (Tocris) for adhesion. Directed differentiation of hPSCs into kidney organoids has been published elsewhere (29). Briefly, hPSCs were differentiated into metanephric mesenchyme cells on day 8 by a three-step directed differentiation protocol. Metanephric mesenchyme was transferred into suspension culture in 96-well ultralow adhesion plates (Coming) and further differentiated into kidney organoids, as previously reported(25). Quality control measures of SIX2 immunostaining on day 8 of differentiation and CDH1, LTL, PODXL, CD146, MEIS1/2/3, and SYTOX-blue staining on day 21 were performed on all batches of kidney organoids to limit batch-to-batch heterogeneity. Kidney organoids were maintained in 200 μl of basal media consisting of Advanced RPMI (Thermo Fisher Scientific) and GlutaMAX (Thermo Fisher Scientific) in 96-well plates, as previously reported. Media changes were conducted three times weekly with removal of 90 [l and addition of 100 μl of fresh basal media.
(§1) For cisplatin induced injury, day 49 organoids were treated with 5 μM cisplatin in basal media after full media change. After 24 hours, full media exchanges were performed. This 24-hour treatment was performed twice a week, on day 52-53, day 56-57, day 59-60, and day 63-64 as well, for a total of five cisplatin treatments. Samples were obtained for RT-qPCR and immunostaining immediately following each 24-hour treatment with cisplatin, and from corresponding controls.
Following the treatment, the organoids were collected and immediately fixed in 4% PFA in PBS for 1 hour at room temperature, submerged in 30% sucrose overnight at 4° C., then embedded in O.C.T. Compound (4585. Fisher HealthCare). Subsequently, […] frozen sections were prepared via cryo-sectioning by a cryostat. After 1 hr blocking at room temperature, the sections were treated overnight at 4° C. with primary antibodies in antibody dilution buffer (ADB) with biotinylated LTL (1:200, B-1325, Vector), rat anti-CDH1 (1:500, ab11512, Abcam), goat anti-PODXL (1:500, AF1658, R&D Systems), as well as the antibody of interest, either mouse anti-p21 (1:200, NBP2-43697, Novus Biologicals), or rabbit anti-γH2AX (1:100, 2577, Cell Signaling) antibodies. For the optimum labeling of LTL by biotin/streptavidin interaction, the Streptavidin/Biotin Blocking Kit (SP-2002, Vector Laboratories) was applied according to the manufacturer's instructions. After washing, the samples were stained for 1 hour at RT with the nuclear dye-SYTOX Blue (1:500. S 11348, Invitrogen) and the corresponding secondary antibodies in ADB such as streptavidin-AF750 (1:500, S21384, Invitrogen), donkey anti-rat IgG-AF594 (1:500, A21209, Invitrogen), donkey anti-goat IgG-AF555 (1:500, A21432, Invitrogen), and donkey anti-rabbit IgG-AF488 (1:500, A21206, Invitrogen) for γH2AX or donkey anti-mouse IgG-AF488 (1:500, A21202, Invitrogen) for p21 antibodies as well as mouse anti-Meisl/⅔ (1:200, sc-101850, SantaCruz) conjugated antibody, and slides were mounted with Vectashield antifade mounting medium (H1000, Vector Laboratories). […]

Assay [2] has as its system human kidney organoids. The experiment in a line: P21, gammaH2AX and LTL immunostaining in cisplatin-injured human kidney organoids. The format is cell-based. The following applies: for gammaH2AX induction: cisplatin; for gammaH2AX induction / P21 expression: concurrent SK-124 (FIG. 9); for LTL-positive proximal tubule cells / P21 / gammaH2AX: dose response, five cisplatin cycles (FIG. 11); for P21 expression: indicated number of cisplatin cycles. How it is done: FIG. 9. SK-124 treatment protects from cisplatin-induced P21 induction in human kidney organoids. Organoids were treated with the indicated number of cisplatin cycles in the presence of DMSO vehicle (top) or SK-124 (bottom). Organoids were then processed for P21 immunofluorescent microscopy.
FIG. 11. SK-124 protects human kidney organoids from cisplatin injury in a dose-dependent manner. Organoids were treated with five cisplatin cycles in the presence of the indicated doses of SK-124. Subsequently, organoids were immunostained to reveal cellular composition and injury markers P21 (top panels) and gammaH2AX (bottom panels). […] Proximal tubule cells are labeled with LTL staining and are reduced by cisplatin treatment and restored by SK-124 co-treatment.
as §1
Following the treatment, the organoids were collected and immediately fixed in 4% PFA in PBS for 1 hour at room temperature, submerged in 30% sucrose overnight at 4° C., then embedded in O.C.T. Compound (4585. Fisher HealthCare). Subsequently, […] frozen sections were prepared via cryo-sectioning by a cryostat. After 1 hr blocking at room temperature, the sections were treated overnight at 4° C. with primary antibodies in antibody dilution buffer (ADB) with biotinylated LTL (1:200, B-1325, Vector), rat anti-CDH1 (1:500, ab11512, Abcam), goat anti-PODXL (1:500, AF1658, R&D Systems), as well as the antibody of interest, either mouse anti-p21 (1:200, NBP2-43697, Novus Biologicals), or rabbit anti-γH2AX (1:100, 2577, Cell Signaling) antibodies. For the optimum labeling of LTL by biotin/streptavidin interaction, the Streptavidin/Biotin Blocking Kit (SP-2002, Vector Laboratories) was applied according to the manufacturer's instructions. After washing, the samples were stained for 1 hour at RT with the nuclear dye-SYTOX Blue (1:500. S 11348, Invitrogen) and the corresponding secondary antibodies in ADB such as streptavidin-AF750 (1:500, S21384, Invitrogen), donkey anti-rat IgG-AF594 (1:500, A21209, Invitrogen), donkey anti-goat IgG-AF555 (1:500, A21432, Invitrogen), and donkey anti-rabbit IgG-AF488 (1:500, A21206, Invitrogen) for γH2AX or donkey anti-mouse IgG-AF488 (1:500, A21202, Invitrogen) for p21 antibodies as well as mouse anti-Meisl/⅔ (1:200, sc-101850, SantaCruz) conjugated antibody, and slides were mounted with Vectashield antifade mounting medium (H1000, Vector Laboratories).
Finally, the images were captured by the STELLARIS 8 confocal microscope (Leica Microsystems) using 25× water immersion objective lens. The mean diameters of the organoids were measured on the Leica Application Suite X (LAS X) software platform.

Assay [3] deals with bone and kidney. Conditions: bone and kidney (ref. 7); cited from earlier work.

Molecules are shown by their SMILES. Entries after “also recorded” stand apart in the source; their conditions may differ.

As for `N.N.[Cl][Pt][Cl]` [cisplatin, reference compound], the proximal tubule cells result in assay [1] is recorded as “proximal tubular loss”. Besides, in assay [2], the gammaH2AX induction result is “robust P21 (top) and gammaH2AX (bottom) induction”; the “LTL-positive proximal tubule cells” value is “reduced; also recorded: loss of LTL-positive proximal tubule cells”; the P21 entry was “robust cisplatin-induced P21 induction”; the gammaH2AX result is reported as “induced”. Besides, in assay [2], the P21 expression entry was “induces P21 expression; also recorded: robust P21 (top) and gammaH2AX (bottom) induction”.

On to `CCc1nnc(-c2c(OC)cc(-c3cnc4cc(-c5cnn(C)c5)ccn34)cc2OC)o1` [SK-124, 2-[2,6-Dimethoxy-4-[7-(1-methylpyrazol-4-yl)imidazo[1,2-a]pyridin-3-yl]phenyl]-5-ethyl-1,3,4-oxadiazole], for which, in assay [1], the cisplatin-induced organoid atrophy entry is recorded as “reduced cisplatin-induced organoid atrophy”; the “organoid cellularity and size in response to cisplatin injury” value is “preserves organoid cellularity and size”; the proximal tubule cells result is given as “preserved proximal tubule cells”. Moreover, in assay [2], the gammaH2AX induction result was “markedly reduced”, the “LTL-positive proximal tubule cells” value is “restored; also recorded: blocked by SK-124 treatment in a dose-dependent manner”, the P21 entry is listed as “reduced by SK-124 co-treatment in a dose-dependent manner; also recorded: blocked by SK-124 treatment in a dose-dependent manner” and the gammaH2AX result is given as “reduced by SK-124 co-treatment in a dose-dependent manner”. The P21 expression entry in assay [2] is “markedly reduced”. The “PTH-like effects in vivo” value in assay [3] was “PTH-like effects in vivo in bone and kidney”.

(Values after patent US20260306463A1, “SIK INHIBITORS TO TREAT CHRONIC KIDNEY DISEASE” (The General Hospital Corporation, priority 2023, published 2026).)
